Experimental data: US20220096529A1, “2-HYDROXYPROPYL-BETA-CYCLODEXTRIN (HPBETACD) FOR USE IN THE TREATMENT OF BREAST CANCER” (UNIVERSITY OF THE WITWATERSRAND, JOHANNESBURG, priority 2019, published 2022)
Several values for one entry are separate records, joined by “and”; a condition that tells them apart may be missing. Equal entries are not always repeated. Entries after “also recorded” stand apart in the source; their conditions may differ.

Experiments:
HEK-293 cells = experiment: Cell-APOPercentage apoptosis assay; type: cell-based, human; settings: 24 hrs
Experimental: (§1) APOPercentage assays gives a measure of overall apoptosis in the cell. Apoptosis is an early event and therefore just one time point (24 hrs) was selected and tested on four cell lines MCF7, MDA-MB-231, MRC-5 & HEK-293 cells. 10 μM Plumbagin was used a positive control as opposed to 40 μM from MTT because higher concentrations of plumbagin was way too toxic for the cells and to capture the early activity, optimal dosage was required. To confirm the growth inhibition obtained from the MTT assay was actually due to apoptosis, a Cell-APOPercentage Apoptosis assay was performed according to known methods.

MCF7 cells [1] = experiment: Cell-APOPercentage apoptosis assay; type: cell-based, human; settings: MCF7, 10 mM HPβCD, 24 hrs
Experimental: as §1

MDA-MB-231 cells [2] = experiment: Cell-APOPercentage apoptosis assay; type: cell-based, human; settings: 24 hrs
Experimental: as §1

MRC-5 cells = experiment: Cell-APOPercentage apoptosis assay; type: cell-based, human; settings: 24 hrs
Experimental: as §1

MDA-MB-231 cells [3] = experiment: Filipin cholesterol staining; type: cell-based, human
Experimental: To further validate cholesterol depletion as observed from the cholesterol assay above a Filipin based cholesterol staining was conducted. MCF7. MDA-MB-231 cells were used. HEK-293 cells could not be used due to unavailability. HPβCD and the positive (5 mM MBCD) were treated for 24 hrs. Like PL, MBCD is also a well know cholesterol depletor.
Fluorescence microscopy has been a robust tool for investigating the intracellular transport of proteins. Filipin specifically binds to cholesterol and can give an overall quantification and has been more recently been clinically used in the diagnosis of Type C Niemann-Pick disease.

MDA-MB-231 cells [4] = experiment: Mice xenograft, triple negative breast cancer; type: in vivo, Nude Mice, MF-1 strain
Experimental: Since the potency of HPβCD against breast cancer was established in our in vitro assays, a thorough investigation in a mice model was conducted (Nude Mice. MF-1 strain). MCF-7 and MDA-MB-231 cells were injected in 32 mice (16 for each cell type) and after tumour development, was treated with HPβCD (3000 mg/kg b.w.). Thrice a week dose treatment plan was followed throughout the study.
To examine if HPβCD can be used as a future anti-breast cancer drug, mice xenografts were prepared. MCF7 cells (5 million) cells were injected in 16 mice with weekly β-estradiol supplementation. The study for triple negative induced breast cancer (MDA-MB-231) is complete. Up to 4 million cells were injected in 16 mice. This was subdivided in three more groups namely: Late stage, intermediate stage and early stage estrogen negative cancer. 4 mice were grouped as untreated (not receiving HPβCD), 4 for treated (late stage), 3 for treated (intermediate stage) and 3 for treated (early stage).
This is because MDA-MB-231 cells are extremely aggressive in nature and that is the reason there is any adequate treatments except the side effects prone to chemotherapy. These 4 mice had to be euthanized at this point because of humane end points. In the late stage treated group, the treatment commenced when the size of the tumour was in between 900 mm^3 to 1350 mm^3 (FIG. 30 A, B, C).
In the intermediate stage group (n=3), the treatment commenced when the size of the tumours reached […]. Again, after 10 doses of HPβCD treatment we saw the average size of the tumours went down to […] which is a staggering 94% decrease (FIG. 31 B, C) as compared to the untreated group. This was remarkable considering how invasive MDA-MB-231 cells are and HPβCD's ability to tame them was quite phenomenal. Finally, in the early stage group (n=3), the treatment commenced when the tumour size was 20 mm^3 (FIG. 33 A. B). […] These 3 mice were then kept for a period of 4 weeks to check for relapse of tumour because estrogen negative tumours have an extreme propensity to recur.

MDA-MB-231 tumours [5] = experiment: Hematoxylin and eosin staining of xenograft tumours; type: in vivo, mice
Description: Hematoxylin and cosin staining of mice was undertaken in untreated, intermediate and late stage MDA-MB-231 mice as is shown in FIG. 36.
The individual cells are markedly pleomorphic and have raised nuclear to cytoplasmic ratios. The neoplastic cells have irregular nuclear borders and the cells have vesicular chromatic with one to multiple prominent nucleoli. Brisk mitotic activity is evident. Areas of perineural and lymphovascular invasion are however, not documented.

MCF7 cells [6] = experiment: RT2 Profiler PCR Array Human Lipoprotein Signaling & Cholesterol Metabolism; type: cell-based; settings: MCF7, majority of genes
Description: (§2) PCR (polymerase chain reaction) arrays were run to identify gene expression changes in cancer cells after treatment with HPβCD. The differentially expressed genes along with their significance for cancer, some genes were selected for further drug-protein interaction studies.
(§3) Results from RT^2 Profiler™ PCR Array Human Lipoprotein Signaling & Cholesterol Metabolism (MCF7 and MDA-MB-231) are shown in FIG. 38.

MDA-MB-231 cells [7] = experiment: as above; type: cell-based
Description: as §2, §3

MCF7 cells [8] = experiment: RT2 Profiler PCR Array Human Breast cancer; type: cell-based
Description: as §2

MDA-MB-231 cells [9] = experiment: RT2 Profiler PCR Array Human Breast cancer; type: cell-based
Description: as §2

MDA-MB-231 tumours [10] = experiment: Filipin cholesterol staining of tumour tissue from mice; type: in vivo; settings: intermediate and late stage tumours
Description: 4 from untreated, 3 from intermediate and 4 from late stage.

[11] = intermediate stage, 3000 mg/kg b.w., 10 doses
[12] = late stage treated mice, one value per case

2-hydroxypropyl-β-cyclodextrin [HPβCD]
cell death (apoptosis) (HEK-293 cells; HEK-293, 20 mM HPβCD): ~15%
cell death (apoptosis) (HEK-293 cells; HEK-293, 50 mM HPβCD): ~18%
cell death (apoptosis) (HEK-293 cells; HEK-293, till 10 mM HPβCD): almost zero percentage cell death
cell death (apoptosis) (MCF7 cells [1]): around 45%
cell death (apoptosis) (MDA-MB-231 cells [2]; MDA-MB-231, 10 mM HPβCD): around 40%
maximum cell death (apoptosis) (MDA-MB-231 cells [2]; MDA-MB-231, 50 mM HPβCD): ~70%
cell death (apoptosis) (MRC-5 cells; MRC-5, 20 mM HPβCD): ~15%
cell death (apoptosis) (MRC-5 cells; MRC-5, 50 mM HPβCD): ~18%
cell death (apoptosis) (MRC-5 cells; MRC-5, till 10 mM HPβCD): almost zero percentage cell death
Filipin fluorescence compared to untreated (MDA-MB-231 cells [3]; MDA-MB-231, 10 mM HPβCD, 24 hrs, ImageJ): six times less fluorescence
cholesterol (Filipin staining) in treated vs untreated cells (MDA-MB-231 cells [3]; MDA-MB-231, FIG. 46): decreased cholesterol
tumour outcome (MDA-MB-231 cells [4]; early stage (20 mm^3 at start), 3000 mg/kg b.w., 10 doses, 3000 mg/kg): completely healed; also recorded: Complete healing of tumour
average size of the tumours (MDA-MB-231 cells [4]; [11]): 784.18 mm3
tumour reduction compared to the untreated group (MDA-MB-231 cells [4]; [11]): 94%
tumour reduction compared to the untreated group (MDA-MB-231 cells [4]; late stage, 3000 mg/kg b.w. intraperitoneally, 10 doses): 73.9%
relapse of tumour (MDA-MB-231 cells [4]; three healed early stage mice, 4 weeks): no recurrence of the tumour; also recorded: no relapse at all
necrosis, share of the total tumour examined (MDA-MB-231 tumours [5]; intermediate group): 6-10%
MITOSES (MDA-MB-231 tumours [5]; intermediate stage treated mice, one value per case): 70 Atypical and 59 Atypical and 67 Atypical
NECROSIS (MDA-MB-231 tumours [5]; intermediate stage treated mice, one value per case (INTM 13, 31, 32)): Focal necrosis; also recorded: Occasional; also recorded: Multiple pockets
apoptotic cells compared to the intermediate group (MDA-MB-231 tumours [5]; late group): 2.9 times
increase in number of apoptotic cells compared to the untreated group (MDA-MB-231 tumours [5]; late group): ~1.7 fold
mitotic activity lower than in the other two groups (MDA-MB-231 tumours [5]; late group): approximately 1.1 times
increase in necrosis compared to the untreated group (MDA-MB-231 tumours [5]; late group, case Late 12): ~4 fold
necrosis, share of the tissue examined (MDA-MB-231 tumours [5]; late group, case Late 12): up to 20%
APOPTOSIS/ 10 HPF (MDA-MB-231 tumours [5]; [12]): 21 and 30 and 39 and 32 and 27
EPID/ MUSCLE INV. (MDA-MB-231 tumours [5]; [12]): No muscle present; also recorded: No muscle or epidermis; also recorded: Muscle invasion
MITOSES (MDA-MB-231 tumours [5]; [12]): 60 and 65 and 57 and 59 and 50
NECROSIS (MDA-MB-231 tumours [5]; late stage treated mice, one value per case (LATE 8 (1), 8 (2), 11, 12, 14)): Necrosis seen
genes involved in cholesterol related pathways (MCF7 cells [6]): downregulated
ABCA1 gene expression (MDA-MB-231 cells [7]; MDA-MB-231, HPβCD treated): upregulation
genes involved in cholesterol related pathways (MDA-MB-231 cells [7]; MDA-MB-231, majority of genes): downregulated
ADAM23 gene expression (MCF7 cells [8]): downregulated by many folds
CTSD gene expression (MCF7 cells [8]): significantly downregulated
ADAM23 gene expression (MDA-MB-231 cells [9]): upregulated
Akt1 gene expression (MDA-MB-231 cells [9]): upregulated
CTSD gene expression (MDA-MB-231 cells [9]): upregulated
GATA3 gene expression (MDA-MB-231 cells [9]): downregulated
SFRP1 gene expression (MDA-MB-231 cells [9]): upregulated
cholesterol (Filipin staining) in tumours compared to untreated (MDA-MB-231 tumours [10]): decreased cholesterol
